Converted amounts (≈) assume the structure as drawn. Peptide text beside a SMILES is read from it.
Tests used:
pH stability = type: physicochemical
Protocol: MSI-1 at 2 mg/ml in PBS (pH 7.0), aqueous HCl (pH 3.0) and aqueous NaOH (pH 11.0) were incubated for 2, 4, 12 and 24 h at 37 °C. The remaining MSI-1 was measured by HPLC. In addition, the bacteria colonies survived 1× MIC of HCl or NaOH treated peptide were recorded simultaneously. That is, after 18 h coincubation, the absorbance which represents the bacteria colonies survived, was recorded by a microplate reader at 600 nm.

E. coli [1] = test: ONPG assay, release of cytoplasmic β-galactosidase; type: cell-based; conditions: 2 h
Protocol: (§1) E. coli were mixed with different concentrations of MSI-1, incubated for 2 h, resuspended by PI solution (20 μg/ml), and ultimately subjected to flow cytometry for PI uptake assay. Calcein-loaded liposomes were prepared to imitate bacterial membrane. Serially diluted peptide was added into liposomes (1:1, v:v) after obtaining the fluorescence intensity at λex/λem=490/520 nm. Once MSI-1 addition, fluorescence intensity was detected at 0, 3, 5, 10, 15 and 20 min. Calcein release rate was calculated as previously described. To observe bacterial morphology, E. coli treated with MSI-1 (32 μg/ml) or PBS for 2 h was collected, fixed by 2.5% glutaraldehyde and subjected to scanning electron microscopy (SEM) assay (SUI510, Hitachi, Japan). In addition, E. coli were resuspended in reaction buffer (60 mM Na2HPO4^. 7H2O, 40 mM NaH2PO4^. H2O, 10 mM KCl, 1 mM MgSO4.7H2O, 0.27% 2-Mercaptoethanol), incubated with ONPG (2.5 mg/ml) and MSI-1 for 2 h. Bacteria envelope integrity was calculated by the percentage of O-nitrophenol production.

[2] = system: penicillin-resistant E. coli; test: Bacteria growth curve and viability at sub-MICs; type: cell-based
Protocol: E. coli were mixed with sub-MICs MSI-1 and OD600 value was recorded every 2 h throughout 26 h of coincubation. In addition, bacteria were suspended with nutrient broth containing MSI-1 and subjected to routine MTT assay after 24 h incubation.

Helicobacterpylori SS1 = type: cell-based; conditions: 4 h
Protocol: Bacterial strains were purchased from the American Type Culture Collection (ATCC). All clinical strains were isolated from human clinical specimens by the Medical Laboratory Center of Zhongda Hospital (Nanjing, Jiangsu, China). Ndm-1, tem-1, ctx-m-1, shv-1 -carrying bacteria were constructed as previously described. The recombinant bacteria carrying drug-resistant genes were prepared in LB nutrient and induced by IPTG (1 mM) for 4 h before text. Other bacterial strains were respectively prepared in MHB and Columbia Blood Agar Base.
A standard micro-broth serial dilution assay was used to measure MIC of peptides. MIC was obtained by a microplate reader at 600 nm. MBC was determined as previously described.

E. coli genomic DNA = test: Gel retardation assay, DNA binding; conditions: 15 min, 1% agarose gel
Protocol: Bacterial genomic DNA was obtained by a BacteriaGen DNA Kit and quantified by a Thermo Scientific NanoDrop™ 2000c Spectrophotometer. Bacterial genomic DNA samples were incubated with isovolumetric MSI-1 at room temperature for 15 min. The gel retardation assay for DNA shift was performed by 1% w/v agarose gel (pre-stained by SYBR Green I) electrophoresis. In UV spectroscopic study, different concentrations of peptide were titrated into genomic DNA (0.5 μg/ml). After 15 min to equilibrate, the UV spectra for DNA and MSI-1-DNA complex were recorded at wavelength range of 230-350 nm. In addition, DNA dissolved in Tris-HCl (pH 7.4, CDNA=0.1 mg/ml) was mixed with EB solution (5 μM). After 10 min incubation in the dark, the EB-DNA mixture was added with different concentrations of MSI-1. Thirty minutes later, the fluorescence spectra were recorded at excitation wavelength 535 nm to measure the competitive binding of MSI-1 and EB with bacterial DNA. […] Secondary structure change of E. coli DNA was analyzed. Moreover, the intracellular changes in E. coli morphology was observed by a JEOL 1230 transmission electron microscopy (TEM) after 2 h coincubation with MSI-1.

[3] = system: penicillin resistant-E. coli isolates; test: Acute systemic E. coli infection in mice; type: in vivo, BALB/c mice; conditions: for survival rate enhanced compared with the model group: doses 10, 5 and 2.5 mg/kg
Protocol: BALB/c mice (5-6 weeks) were purchased from the Laboratory Animal Center of Yangzhou University (Yangzhou, Jiangsu, China) and intraperitoneally (ip) injected with 500 μl (5× 10^8 CFU/ml) of penicillin resistant-E. coli isolates. Mice in MSI-1 treated groups (10, 5 and 2.5 mg/kg, n=16/group) and polymyxin treated group (5 mg/kg) were administered after 2 h post bacterial inoculation. After 12 h, six mice in each group were anesthetized with pentobarbital sodium (50 mg/kg body weight, i.p) and euthanized by cervical dislocation to count bacterial colonies in blood, lung, spleen, kidney and liver. Lung homogenates were collected for Gram staining. Moreover, serum TNF-α and IL-6 were measured by ELISA kits. The procedure of H&E staining for mouse lung was adapted from a published report. The survival and weight of other mice were monitored daily up to 7 days.

E. coli [4] = test: PI uptake assay, flow cytometry; type: cell-based; conditions: 4× MIC, 2 h
Protocol: as §1

SMILES: CC[C@H](C)[C@H](NC(=O)CN)C(=O)N[C@@H](Cc1c[nH]c2ccccc12)C(=O)N[C@@H](CCCCN)C(=O)N[C@@H](Cc1ccccc1)C(=O)N[C@@H](CC(C)C)C(=O)N[C@@H](CCCCN)C(=O)N[C@@H](CCCCN)C(=O)N[C@@H](C)C(=O)N[C@@H](CCCCN)C(=O)N[C@@H](CCCCN)C(=O)N[C@@H](Cc1ccccc1)C(=O)N[C@@H](Cc1c[nH]c2ccccc12)C(=O)N[C@@H](CCCCN)C(N)=O [MSI-1] (H-GIWKFLKKAKKFWK-NH2)
- percentage of remaining MSI-1 (pH stability; 2 mg/ml in aqueous HCl (pH 3.0), aqueous NaOH (pH 11.0) or PBS (pH 7.0), 37 °C, within 24 h, HPLC): 99%-100%
- effect of HCl (pH 3.0) and NaOH (pH 11.0) treatment on MIC against bacteria (pH stability; treated peptide at 1× MIC, 18 h, 600 nm): did not affect the MIC
- activity in the supernatants (β-galactosidase release, relative to sonicated bacteria) (E. coli [1]; 2× MIC): 36.7%
- activity in the supernatants (β-galactosidase release, relative to sonicated bacteria) (E. coli [1]; 4× MIC): 80.7%
- growth pattern of bacteria ([2]; 1/4 and 1/8 MIC, OD600 over 26 h): not significantly altered
- cell viability vs control ([2]; sub-MICs, MTT, within 26 h, p>0.05): no significant difference
- MBC (Helicobacterpylori SS1): 64 µg/mL (≈ 35.4 µM)
- MIC (Helicobacterpylori SS1): 32 µg/mL (≈ 17.7 µM)
- dose at which the peptide bound to genomic DNA (E. coli genomic DNA; 1/4× MIC): 2 µg/mL
- peptide concentration at which electrophoretic movement of DNA was completely inhibited (E. coli genomic DNA): higher than 4 μg/ml
- reduction in CFU (blood and organs) ([3]; 10 mg/kg, 12 h): approximately 2 log unit
- decreased rates of serum IL-6 and TNF-α ([3]; 10 mg/kg, 12 h post-infection, ELISA): 70%~80%
- body weight ([3]; 7 days, polymyxin 5 mg/kg): marked weight maintenance effect
- survival rate enhanced compared with the model group ([3]; first of three values, given 2 h post inoculation, 7 days): 80%
- survival rate enhanced compared with the model group ([3]; second of three values, 7 days): 50%
- survival rate enhanced compared with the model group ([3]; third of three values, 7 days): 30%
- PI-positive rate (E. coli [4]): 80.4%

From publication PMC6956804, “Potent antibacterial activity of MSI-1 derived from the magainin 2 peptide against drug-resistant bacteria” (Theranostics, 2020)
